What was measured:
Experiment in all cases: relative viability (nuclei count vs DMSO), 5 days (fraction); higher = more cells survive
[1] = test system: A-427
Outline: (§1)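 Lung cancer cell lines in 1536-well plates got either a single drug or a fixed anchor-drug dose together with five library-drug doses (not always all listed) in √10 steps, by pin tool, on the day after seeding. Nuclei were counted after 5 days, and relative viability is the treated-to-vehicle ratio of nuclei counts. Values are medians of duplicate plates.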

[2] = test system: COR-L 105
Outline: as §1

[3] = test system: ChaGo-K-1
Outline: as §1

[4] = test system: EKVX
Outline: as §1

[5] = test system: EMC-BAC-2
Outline: as §1

[6] = test system: H3255
Outline: as §1

[7] = test system: HCC-366
Outline: as §1

[8] = test system: LK-2
Outline: as §1

[9] = test system: LOU-NH91
Outline: as §1

[10] = test system: NCI-H1563
Outline: as §1

[11] = test system: NCI-H1666
Outline: as §1

[12] = test system: NCI-H1734
Outline: as §1

[13] = test system: NCI-H1755
Outline: as §1

[14] = test system: NCI-H1792
Outline: as §1

[15] = test system: NCI-H1975
Outline: as §1

[16] = test system: NCI-H2170
Outline: as §1

[17] = test system: NCI-H23
Outline: as §1

[18] = test system: NCI-H441
Outline: as §1

[19] = test system: NCI-H520
Outline: as §1

[20] = test system: NCI-H596
Outline: as §1

[21] = test system: PC-3 [JPC-3]
Outline: as §1

[22] = test system: SK-MES-1
Outline: as §1

O=C(O)c1ccc(-c2c[nH]c3ncc(-c4ccccc4)cc23)cc1C1CCCC1 + C[C@@H](Oc1cc(-c2cnn(C3CCNCC3)c2)cnc1N)c1c(Cl)ccc(F)c1Cl [Crizotinib] (partner 1 µM)
relative viability ([1]; first compound 0.04 µM): 0.941
relative viability ([1]; first compound 0.1265 µM): 0.845
relative viability ([1]; first compound 0.4 µM): 0.86
relative viability ([1]; first compound 1.265 µM): 0.852
relative viability ([2]; first compound 0.04 µM): 0.857
relative viability ([2]; first compound 0.1265 µM): 0.789
relative viability ([2]; first compound 0.4 µM): 0.723
relative viability ([2]; first compound 1.265 µM): 0.792
relative viability ([3]; first compound 0.04 µM): 1.11
relative viability ([3]; first compound 0.1265 µM): 1.1
relative viability ([3]; first compound 0.4 µM): 1.04
relative viability ([3]; first compound 1.265 µM): 0.846
relative viability ([4]; first compound 0.04 µM): 1.13
relative viability ([4]; first compound 0.1265 µM): 0.891
relative viability ([4]; first compound 0.4 µM): 0.927
relative viability ([4]; first compound 1.265 µM): 0.676
relative viability ([5]; first compound 0.04 µM): 0.76
relative viability ([5]; first compound 0.1265 µM): 0.806
relative viability ([5]; first compound 0.4 µM): 0.671
relative viability ([5]; first compound 1.265 µM): 0.672
relative viability ([6]; first compound 0.04 µM): 0.953
relative viability ([6]; first compound 0.1265 µM): 0.851
relative viability ([6]; first compound 0.4 µM): 0.825
relative viability ([6]; first compound 1.265 µM): 0.9
relative viability ([7]; first compound 0.04 µM): 0.502
relative viability ([7]; first compound 0.1265 µM): 0.686
relative viability ([7]; first compound 0.4 µM): 0.619
relative viability ([7]; first compound 1.265 µM): 0.696
relative viability ([8]; first compound 0.04 µM): 0.31
relative viability ([8]; first compound 0.1265 µM): 0.202
relative viability ([8]; first compound 0.4 µM): 0.291
relative viability ([8]; first compound 1.265 µM): 0.198
relative viability ([9]; first compound 0.04 µM): 0.725
relative viability ([9]; first compound 0.1265 µM): 0.771
relative viability ([9]; first compound 0.4 µM): 0.702
relative viability ([9]; first compound 1.265 µM): 0.782
relative viability ([10]; first compound 0.04 µM): 0.787
relative viability ([10]; first compound 0.1265 µM): 0.91
relative viability ([10]; first compound 0.4 µM): 0.851
relative viability ([10]; first compound 1.265 µM): 0.875
relative viability ([11]; first compound 0.04 µM): 1.03
relative viability ([11]; first compound 0.1265 µM): 0.991
relative viability ([11]; first compound 0.4 µM): 0.812
relative viability ([11]; first compound 1.265 µM): 0.365
relative viability ([12]; first compound 0.04 µM): 0.752
relative viability ([12]; first compound 0.1265 µM): 0.705
relative viability ([12]; first compound 0.4 µM): 0.601
relative viability ([12]; first compound 1.265 µM): 0.543
relative viability ([13]; first compound 0.04 µM): 0.883
relative viability ([13]; first compound 0.1265 µM): 0.924
relative viability ([13]; first compound 0.4 µM): 0.897
relative viability ([13]; first compound 1.265 µM): 0.839
relative viability ([14]; first compound 0.04 µM): 0.959
relative viability ([14]; first compound 0.1265 µM): 0.994
relative viability ([14]; first compound 0.4 µM): 1.03
relative viability ([14]; first compound 1.265 µM): 0.891
relative viability ([15]; first compound 0.04 µM): 0.999
relative viability ([15]; first compound 0.1265 µM): 1.04
relative viability ([15]; first compound 0.4 µM): 0.923
relative viability ([15]; first compound 1.265 µM): 0.767
relative viability ([16]; first compound 0.04 µM): 1.12
relative viability ([16]; first compound 0.1265 µM): 1.24
relative viability ([16]; first compound 0.4 µM): 1.18
relative viability ([16]; first compound 1.265 µM): 0.843
relative viability ([17]; first compound 0.04 µM): 0.689
relative viability ([17]; first compound 0.1265 µM): 0.598
relative viability ([17]; first compound 0.4 µM): 0.482
relative viability ([17]; first compound 1.265 µM): 0.484
relative viability ([18]; first compound 0.04 µM): 0.601
relative viability ([18]; first compound 0.1265 µM): 0.907
relative viability ([18]; first compound 0.4 µM): 0.689
relative viability ([18]; first compound 1.265 µM): 0.525
relative viability ([19]; first compound 0.04 µM): 0.748
relative viability ([19]; first compound 0.1265 µM): 1.02
relative viability ([19]; first compound 0.4 µM): 0.744
relative viability ([19]; first compound 1.265 µM): 0.828
relative viability ([20]; first compound 0.04 µM): 1
relative viability ([20]; first compound 0.1265 µM): 1.09
relative viability ([20]; first compound 0.4 µM): 0.909
relative viability ([20]; first compound 1.265 µM): 1
relative viability ([21]; first compound 0.04 µM): 0.963
relative viability ([21]; first compound 0.1265 µM): 1.03
relative viability ([21]; first compound 0.4 µM): 0.968
relative viability ([21]; first compound 1.265 µM): 0.832
relative viability ([22]; first compound 0.04 µM): 0.942
relative viability ([22]; first compound 0.1265 µM): 1.01
relative viability ([22]; first compound 0.4 µM): 0.953
relative viability ([22]; first compound 1.265 µM): 0.774

O=C(O)c1ccc(-c2c[nH]c3ncc(-c4ccccc4)cc23)cc1C1CCCC1 + CS(=O)(=O)N1CCN(Cc2cc3nc(-c4cccc5[nH]ncc45)nc(N4CCOCC4)c3s2)CC1 [Pictilisib] (partner 1 µM)
relative viability ([1]; first compound 0.04 µM): 0.836
relative viability ([1]; first compound 0.1265 µM): 0.738
relative viability ([1]; first compound 0.4 µM): 0.723
relative viability ([1]; first compound 1.265 µM): 0.738
relative viability ([2]; first compound 0.04 µM): 0.435
relative viability ([2]; first compound 0.1265 µM): 0.429
relative viability ([2]; first compound 0.4 µM): 0.497
relative viability ([2]; first compound 1.265 µM): 0.388
relative viability ([3]; first compound 0.04 µM): 0.788
relative viability ([3]; first compound 0.1265 µM): 1.11
relative viability ([3]; first compound 0.4 µM): 0.649
relative viability ([3]; first compound 1.265 µM): 0.923
relative viability ([4]; first compound 0.04 µM): 0.462
relative viability ([4]; first compound 0.1265 µM): 0.524
relative viability ([4]; first compound 0.4 µM): 0.468
relative viability ([4]; first compound 1.265 µM): 0.374
relative viability ([5]; first compound 0.04 µM): 0.555
relative viability ([5]; first compound 0.1265 µM): 0.557
relative viability ([5]; first compound 0.4 µM): 0.537
relative viability ([5]; first compound 1.265 µM): 0.554
relative viability ([6]; first compound 0.04 µM): 0.502
relative viability ([6]; first compound 0.1265 µM): 0.529
relative viability ([6]; first compound 0.4 µM): 0.441
relative viability ([6]; first compound 1.265 µM): 0.462
relative viability ([7]; first compound 0.04 µM): 0.136
relative viability ([7]; first compound 0.1265 µM): 0.192
relative viability ([7]; first compound 0.4 µM): 0.138
relative viability ([7]; first compound 1.265 µM): 0.153
relative viability ([8]; first compound 0.04 µM): 0.754
relative viability ([8]; first compound 0.1265 µM): 0.507
relative viability ([8]; first compound 0.4 µM): 0.611
relative viability ([8]; first compound 1.265 µM): 0.592
relative viability ([9]; first compound 0.04 µM): 0.513
relative viability ([9]; first compound 0.1265 µM): 0.517
relative viability ([9]; first compound 0.4 µM): 0.512
relative viability ([9]; first compound 1.265 µM): 0.52
relative viability ([10]; first compound 0.04 µM): 0.604
relative viability ([10]; first compound 0.1265 µM): 0.658
relative viability ([10]; first compound 0.4 µM): 0.65
relative viability ([10]; first compound 1.265 µM): 0.742
relative viability ([11]; first compound 0.04 µM): 0.406
relative viability ([11]; first compound 0.1265 µM): 0.439
relative viability ([11]; first compound 0.4 µM): 0.451
relative viability ([11]; first compound 1.265 µM): 0.251
relative viability ([12]; first compound 0.04 µM): 0.429
relative viability ([12]; first compound 0.1265 µM): 0.556
relative viability ([12]; first compound 0.4 µM): 0.445
relative viability ([12]; first compound 1.265 µM): 0.419
relative viability ([13]; first compound 0.04 µM): 0.381
relative viability ([13]; first compound 0.1265 µM): 0.603
relative viability ([13]; first compound 0.4 µM): 0.45
relative viability ([13]; first compound 1.265 µM): 0.442
relative viability ([14]; first compound 0.04 µM): 0.287
relative viability ([14]; first compound 0.1265 µM): 0.311
relative viability ([14]; first compound 0.4 µM): 0.329
relative viability ([14]; first compound 1.265 µM): 0.27
relative viability ([15]; first compound 0.04 µM): 0.256
relative viability ([15]; first compound 0.1265 µM): 0.297
relative viability ([15]; first compound 0.4 µM): 0.309
relative viability ([15]; first compound 1.265 µM): 0.271
relative viability ([16]; first compound 0.04 µM): 0.386
relative viability ([16]; first compound 0.1265 µM): 0.326
relative viability ([16]; first compound 0.4 µM): 0.294
relative viability ([16]; first compound 1.265 µM): 0.211
relative viability ([17]; first compound 0.04 µM): 0.532
relative viability ([17]; first compound 0.1265 µM): 0.519
relative viability ([17]; first compound 0.4 µM): 0.43
relative viability ([17]; first compound 1.265 µM): 0.428
relative viability ([18]; first compound 0.04 µM): 0.489
relative viability ([18]; first compound 0.1265 µM): 0.517
relative viability ([18]; first compound 0.4 µM): 0.469
relative viability ([18]; first compound 1.265 µM): 0.338
relative viability ([19]; first compound 0.04 µM): 0.288
relative viability ([19]; first compound 0.1265 µM): 0.268
relative viability ([19]; first compound 0.4 µM): 0.299
relative viability ([19]; first compound 1.265 µM): 0.262
relative viability ([20]; first compound 0.04 µM): 0.353
relative viability ([20]; first compound 0.1265 µM): 0.399
relative viability ([20]; first compound 0.4 µM): 0.353
relative viability ([20]; first compound 1.265 µM): 0.41
relative viability ([21]; first compound 0.04 µM): 0.784
relative viability ([21]; first compound 0.1265 µM): 0.799
relative viability ([21]; first compound 0.4 µM): 0.757
relative viability ([21]; first compound 1.265 µM): 0.768
relative viability ([22]; first compound 0.04 µM): 0.326
relative viability ([22]; first compound 0.1265 µM): 0.399
relative viability ([22]; first compound 0.4 µM): 0.283
relative viability ([22]; first compound 1.265 µM): 0.298
